# From patent US12209142B2, “SARS-CoV-2 epitope-targeted peptide immunostimulants” (Institute for Systems Biology, priority 2020, dated 2025)
# Several values for one entry are separate records, joined by “and”; a condition that tells them apart may be missing. Equal values may be shown once. Bridges are numbered along the chain shown (N, C = ends). Where no end group is shown, it is not given here. [ ]: non-standard residue; d: D form. Lys(N3) = [N-]=[N+]=NCCCC[C@H](N)C(=O)O; Pra = C#CC[C@H](N)C(=O)O
# How the values were obtained:
# Format in all cases: cell-based, Klebsiella pneumoniae
# [1] = system: K. pneumoniae cells (strain BAA 1705); experiment: Gentamicin protection assay: phagocytosis and opsonophagocytic killing (OPK) by macrophages; settings: 1 h
# Description: FIGS. 7A and 7B show a gentamicin protection assay that evaluates EPI-driven phagocytosis and opsonophagocytic killing (OPK) of K. pneumoniae cells by murine bone-marrow-derived macrophages. FIG. 7A is a flow diagram depicting the assay used to evaluate EPI-driven opsonophagocytic killing (OPK) of K. pneumoniae cells. Briefly, K. pneumoniae cells (strain BAA 1705) opsonized by EPIs (AR-PCCs) and anti-DNP antibodies were incubated with macrophages for 1 or 24 h. Macrophages were lysed, and the lysate was plated to obtain bacterial colonies that were subsequently counted. FIG. 7B is a plot of colony counts for various samples subjected to the OPK assay. […] All EPIs (AR-PCCs) were used at a 5 μM concentration, measurements were conducted in triplicate, and error bars reflect standard deviations. cy(LLFFA) is SEQ ID NO:11.
# It also tested whether DNP-conjugated EPIs could promote the opsonophagocytic killing (OPK) of K. pneumoniae by macrophages. This was tested by using an OPK assay. Briefly, K. pneumoniae cells were treated with EPI and then anti-DNP antibody before being exposed to macrophages for either 6 or 24 hours. During this incubation period, macrophages that recognize K. pneumoniae cells will phagocytose them, and phagocytosed bacteria will remain viable for up to 6 hours, but within 24 hours are rendered inviable by OPK. Thus, macrophages were isolated after 6 and 24 hours of incubation with K. pneumoniae, lysed them, and plated and grew the lysate, which yielded bacterial colonies that reflect the phagocytosis (at 6 hrs) or OPK (at 24 hrs) of bacteria.
# Given that cy(LLFFF)-DNP (SEQ ID NO:5) recruits antibodies to K. pneumoniae surfaces, it was expected that K. pneumoniae opsonized in this manner would be more susceptible to phagocytosis by macrophages. AR-PCC-driven phagocytosis and OPK were quantified by a gentamicin protection assay, as depicted in FIG. 7A. For this assay, K. pneumoniae cells (strain BAA 1705) were treated with cy(LLFFF)-DNP (SEQ ID NO:5), opsonized by anti-DNP antibodies, and then incubated with murine bone-marrow-derived macrophages (BMDMs). BMDMs were subsequently exposed to a solution containing gentamicin, to which K. pneumoniae strain BAA 1705 is susceptible, to kill any extracellular bacteria. Phagocytosed bacteria remain viable inside BMDMs for at least 1 h, yet are rendered inviable after 24 h by OPK (FIG. 13). Macrophages harvested at 1 h and 24 h were lysed and plated to generate bacterial colonies, which were enumerated to quantify phagocytosis and OPK.
# Opsonophagocytic killing (OPK) assays. Klebsiella pneumoniae BAA1705 was treated with DNP-PCCs followed by incubation with anti-DNP antibody, as described above in the “Cell-Based ELISAs” section. These opsonized bacteria were then used to infect BMDMs at a multiplicity of infection of 50 for 0.5 h at 37° C. Bacteria were then washed by using RPMI 1640 Media and BMDMs were left in cell culture medium containing gentamicin (100 μg/ml). After 1 h and 24 h BMDMs were washed to remove gentamicin and intracellular bacteria were harvested by lysing BMDMs in RPMI media containing 0.2% Triton X 100. Bacterial CFUs were enumerated by plating onto LB agar. Bacterial counts at 1 h indicated the degree of opsonization while those at 24 h served as a measure of microbicidal activity of macrophages. For these measurements, anti-MrkA antibody and K. pneumoniae antiserum were used at dilutions of 5 μg/mL each.
# [2] = system: K. pneumoniae cells, BAA 1705 and BAA 2146; experiment: Whole-cell ELISA of anti-DNP recruitment to bacterial cell surfaces; settings: AR-PCC plus anti-DNP; cy(LLFFF)-DNP 5 or 10 μM, cy(HNGPT)-DNP 50 and 100 μM
# Excerpt: FIG. 12 is a plot of 450 nm absorbances obtained from a cell-based ELISA assay conducted on two strains of K. pneumoniae cells, BAA 1705 (black) and BAA 2146 (grey), that were either untreated or opsonized by EPIs (AR-PCCs) and/or antibodies. […] This establishes EPI-driven opsonization by cy(LLFFF)-DNP (SEQ ID NO:5). […] This indicates opsonization by cy(LLFFF)-DNP (SEQ ID NO:5) is specific and is driven by the ligand cy(LLFFF) (SEQ ID NO:5), rather than the Lys(DNP) moiety.
# The protocol for detecting anti-DNP recruitment to bacterial cell surfaces is as follows. […] After washing, bacteria were incubated with HRP conjugated secondary antibody (Bio-Rad) at a dilution of 1:10,000 for 1 h at 37° C. Unbound antibody was washed off by using PBS-BSA and the cells were then developed by using TMB reagent. […] Anti-MrkA antibody was procured from Biorbyt (orb51318) and used at a concentration of 5 μg/mL, and K. pneumoniae antiserum was obtained from abcam (ab20947) and used at a concentration of 5 μg/mL.
# [3] = system: K. pneumoniae cells (strain BAA 2146); experiment: Flow cytometry of AR-PCC-driven opsonization by anti-DNP antibodies; settings: cy(LLFFF)-DNP 1 or 5 μM, cy(HNGPT) control 50 μM, plus fluorescent anti-DNP
substance,measurement,setting,value
"cy(LLFFF)-DNP: cy(LLFFF) tagged with a DNP-modified lysine residue; lead AR-PCC ([Pra]LLFFF[Lys(N3)]; bridge 1-7; not fully specified (bridges); printed as cy(LLFFF)-DNP; also: tagged with a DNP-modified lysine residue, position not given here)","phagocytosis at 1 h, AR-PCC only (no anti-DNP)",[1]; AR-PCC 5 μM,None of these treatments elicited phagocytosis above basal levels
same,"colony counts at 1 h, AR-PCC plus anti-DNP antibody","[1]; AR-PCC 5 μM, murine BMDMs","89,000 CFU and 85,000 CFU"
same,level of phagocytosis lower than that induced by K. pneumoniae antiserum and anti-MrkA treatment,[1]; plus anti-DNP,about 15%
same,"450 nm absorbance, anti-DNP recruitment to cells",[2],much larger signal
same,fluorescence of cells (opsonization by anti-DNP),[3],much higher fluorescence
